According to patent US20230414555A1, “USE OF DIHYDROMYRICETIN AS EPIGENETIC ACTIVE INGREDIENT FOR COSMETIC OR DERMATOLOGICAL SKIN CARE” (BEIERSDORF AG, priority 2020, published 2023):

Tests used:
[1] = target: T1, recombinant DNMT1 enzyme (Homo sapiens, UniProt P26358); test: cell-free DNMT Activity/Inhibition Assay (Active Motif); assay type: biochemical; settings: manufacturer's standard protocol, FIG. 1
T1 construct: purchased Active Motif, Belgium
Source text: Here, the assay manufacturer's standard protocol was used.

[2] = system: DNA methylation of 850 000 CpGs in the epidermis; test: in vivo study: epidermal DNA methylation by EPIC technology after cream application and UV irradiation; settings: verum cream on lower back for two weeks, UV 0.8 MED on three consecutive days, compared to unirradiated control, n=32, FIG. 2
Procedure: To this end, test subjects (n=32) applied cream comprising a vehicle and a verum including dihydromyricetin to the lower back for two weeks. After the two-week treatment period, the test subjects were irradiated with UV (0.8 MED) on three consecutive days in order to imitate an age-relevant environmental influence. 24 hours after the final UV irradiation, suction blisters were produced and the epidermis was harvested. The DNA was isolated from the epidermis and the state of the DNA methylation of 850 000 CpGs was determined by means of EPIC technology from Illumina.

[3] = system: expression of 45 genes in the epidermis; test: in vivo study: gene expression in epidermis (TaqMan) after eight weeks of cream application; settings: verum cream on inner forearm for eight weeks, 19 test subjects (50-65 years), 45 genes analyzed, ΔΔCt method, FIG. 3
Procedure: To this end, 19 test subjects (50-65 years) applied cream comprising a vehicle and a verum including dihydromyricetin to the inner forearm over a period of eight weeks. Suction blisters were then produced and the epidermis was harvested. The RNA was isolated from the epidermis samples (RNeasy Fibrous Tissue Kit, Qiagen, Hilden) and the expression of 45 genes (+3 endogenous control genes) was analyzed using the TaqMan system (7900HT Fast Real-Time PCR System, Applied Biosystems). […] The changes in expression were calculated using the ΔΔCt method.

T1 sequence (P26358 whole entry): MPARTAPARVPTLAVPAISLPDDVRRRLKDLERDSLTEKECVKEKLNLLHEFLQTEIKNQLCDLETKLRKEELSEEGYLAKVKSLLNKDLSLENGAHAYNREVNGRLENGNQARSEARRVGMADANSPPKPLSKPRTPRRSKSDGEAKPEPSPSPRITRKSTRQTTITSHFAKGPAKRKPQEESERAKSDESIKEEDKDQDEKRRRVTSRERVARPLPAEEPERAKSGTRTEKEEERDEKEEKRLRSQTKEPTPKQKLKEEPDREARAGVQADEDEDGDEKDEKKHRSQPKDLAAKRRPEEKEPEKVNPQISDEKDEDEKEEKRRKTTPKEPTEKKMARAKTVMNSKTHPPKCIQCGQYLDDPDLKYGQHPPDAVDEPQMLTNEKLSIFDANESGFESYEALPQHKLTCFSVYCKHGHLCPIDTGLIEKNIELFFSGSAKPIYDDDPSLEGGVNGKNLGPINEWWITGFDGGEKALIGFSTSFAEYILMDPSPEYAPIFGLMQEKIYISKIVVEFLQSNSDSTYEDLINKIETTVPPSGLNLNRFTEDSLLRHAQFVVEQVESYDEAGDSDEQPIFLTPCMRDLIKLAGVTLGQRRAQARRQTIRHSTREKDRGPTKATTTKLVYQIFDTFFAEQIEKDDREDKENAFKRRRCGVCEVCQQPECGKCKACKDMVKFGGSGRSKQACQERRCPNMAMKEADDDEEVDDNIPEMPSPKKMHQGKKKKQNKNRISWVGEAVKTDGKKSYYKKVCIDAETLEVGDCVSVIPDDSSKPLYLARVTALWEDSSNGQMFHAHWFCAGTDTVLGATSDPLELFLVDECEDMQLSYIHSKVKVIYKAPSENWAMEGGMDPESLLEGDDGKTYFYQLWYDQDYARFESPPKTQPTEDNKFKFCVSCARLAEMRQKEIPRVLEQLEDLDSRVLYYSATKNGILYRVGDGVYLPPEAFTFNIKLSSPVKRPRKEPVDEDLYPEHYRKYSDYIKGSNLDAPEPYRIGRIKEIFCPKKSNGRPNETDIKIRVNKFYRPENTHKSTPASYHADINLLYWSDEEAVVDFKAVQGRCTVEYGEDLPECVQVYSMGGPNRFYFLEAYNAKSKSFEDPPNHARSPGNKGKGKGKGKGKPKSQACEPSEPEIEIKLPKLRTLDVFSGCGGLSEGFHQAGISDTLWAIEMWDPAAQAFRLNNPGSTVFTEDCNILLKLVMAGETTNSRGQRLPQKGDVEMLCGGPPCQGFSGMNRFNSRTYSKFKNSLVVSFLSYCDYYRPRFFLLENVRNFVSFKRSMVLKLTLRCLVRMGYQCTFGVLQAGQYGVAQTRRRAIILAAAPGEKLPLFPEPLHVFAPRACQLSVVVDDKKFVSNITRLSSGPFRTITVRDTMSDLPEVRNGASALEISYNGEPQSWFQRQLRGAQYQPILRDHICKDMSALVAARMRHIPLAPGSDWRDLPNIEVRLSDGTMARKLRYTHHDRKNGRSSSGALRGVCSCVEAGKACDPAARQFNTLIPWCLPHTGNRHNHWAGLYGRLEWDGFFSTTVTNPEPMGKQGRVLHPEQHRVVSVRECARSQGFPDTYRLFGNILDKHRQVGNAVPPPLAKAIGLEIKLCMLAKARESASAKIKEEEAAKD

inhibition of the recombinant DNMT1 enzyme [1]: concentration-dependent inhibition
Structure (SMILES): O=C1c2c(O)cc(O)cc2O[C@H](c2cc(O)c(O)c(O)c2)[C@H]1O [dihydromyricetin, (2R,3R)-3,5,7-trihydroxy-2-(3,4,5-trihydroxyphenyl)chroman-4-one]
methylation changes at CpGs at which the vehicle-treated area did not show any significant methylation changes [2]: 16 389 CpGs | genes with significant increase in expression in comparison to vehicle-treated control samples [3]: 16 genes
